Assay results taken from patent US8426369B2, “Prevention and treatment of colon cancer” (Rutgers, The State University of New Jersey, priority 2006, dated 2013).

Experiments:
iNOS = iNOS immunostaining of colon sections; assay type: in vivo, male F344 rats; conditions: 40 ppm in diet, AOM-treated rats
Procedure: (§1) Animals were treated as described in Example 27. Colon samples from each group were harvested at autopsy and fixed in 10% formalin for 24 hr. They were sectioned into 8 to 10 segments, paraffin embedded, and microtomed into 4 μm thick tissue sections. The slides were incubated overnight at room temperature with antibody to proliferating cell nuclear antigen (PCNA) (1:1000 diluted, BD Pharmingen, San Diego, Calif.), iNOS (1:100 diluted, Santa Cruz Biotechnology, Santa Cruz, Calif.), or mucin MUC2 (1:250 diluted, Santa Cruz Biotechnology, Santa Cruz, Calif.).
(§2) The slides were incubated with the biotinylated secondary antibody, and then with avidin/biotinylated peroxidase complex for 30 min at room temperature (Vector Labs, Burlingame, Calif.), and were incubated with […] (DAB) substrate. The sections were then counter-stained with Modified Harris Hematoxylin. The images were taken randomly at 400× using Zeiss AxioCam HRc camera fitted to a Zeiss Axioskope 2 Plus microscope. A positive reaction is noted by a reddish brown precipitate in the nucleus for PCNA, in the cytoplasm for iNOS or in the colon crypts for mucin MUC2.

mucin MUC2 = experiment: Mucin MUC2 immunostaining of colon sections; assay type: in vivo, male F344 rats; conditions: 40 ppm in diet, AOM-treated rats
Procedure: as §1, §2

p21 = experiment: Western blot of p21 in HT-29 cells; assay type: cell-based, human; conditions: HT-29, data not shown
Procedure: The cells were incubated with different concentrations of pterostilbene for 1, 2 and 3 days, and cell proliferation was estimated by measuring [^3H]thymidine incorporated into DNA. […] In order to evaluate whether pterostilbene potentiates cell cycle arrest or apoptosis in HT-29 cells, the effect of pterostilbene on the proteins regulating the cell cycle and/or apoptosis pathways was examined. Cells treated with pterostilbene for 9 h or 18 h were harvested and protein samples were analyzed by Western blotting (FIG. 8B).
(§3) The cell culture conditions and the reagents used in this example were described in Example 32. Whole cell extracts were collected after the various treatments and analyzed by western blotting. The protein samples were separated on 4-15% SDS-PAGE gels (Biorad, Hercules, Calif.) followed by transfer to a polyvinylidene fluoride membrane. The membranes were blocked with 5% milk in Tris buffer for 1 h and then incubated with the appropriate primary antibody solutions overnight at 4° C. The membranes were washed with Tris buffer, and incubated with horseradish peroxidase conjugated secondary antibody solutions for 1 h at room temperature.
The protein bands were visualized using a chemiluminescence based kit from Amersham Biosciences (Buckinghamshire, UK). […]

iNOS mRNA = experiment: Quantitative RT-PCR of cytokine-induced iNOS mRNA in HT-29 cells; assay type: cell-based, human; conditions: 10 and 30 μM
Procedure: (§4) The cell culture conditions and the reagents used in this example were described in Example 32. The gene-mediated expression of iNOS and COX-2 are reported to be regulated at both the transcriptional and translational levels. In order to understand the effect of pterostilbene on cytokine-induced expression of proinflammatory enzymes and cytokines, RNA samples after treatment of HT-29 cells with cytokines and/or pterostilbene were analyzed by quantitative RT-PCR for the induction of mRNA levels of iNOS, COX-2, IL-1β, IFN-γ and TNF-α genes.
(§5) To determine the changes of mRNA levels by pterostilbene and cytokines, quantitative RT-PCR analysis was utilized, as described previously (Lee et al., Mol Pharmacol 2006; 69(6):1840-1848). Briefly, the cells were incubated with compounds for indicated period and the cells were then lysed using Trizol to extract RNA. RNA was reverse transcribed into cDNA using a high capacity cDNA archive kit (Applied Biosystems, Foster City, Calif.). The cDNA was used for quantitative PCR which was run on the ABI Prism […] sequence Detection System. The primers for the iNOS, COX-2, IFN-γ, TNF-α, IL-1β and GAPDH were obtained from Applied Biosystems (Foster City, Calif.).

COX-2 mRNA = experiment: Quantitative RT-PCR of cytokine-induced COX-2 mRNA in HT-29 cells; assay type: cell-based, human; conditions: 10 and 30 μM
Procedure: as §4, §5

IL-1β mRNA = experiment: Quantitative RT-PCR of cytokine-induced IL-1β mRNA in HT-29 cells; assay type: cell-based, human; conditions: 10 and 30 μM
Procedure: as §4, §5

IκBα = experiment: Western blot of IκBα after cytokine treatment of HT-29 cells; assay type: cell-based, human; conditions: cytokine treatment 15 min
Procedure: as §3
(§6) The protein bands were visualized using a chemiluminescence based kit from Amersham Biosciences (Buckinghamshire, UK). The primary antibodies against iNOS, COX-2, IκBα, cyclin D1, c-myc (Santa Cruz Bio-technology, Santa Cruz, Calif.), phospho-STAT3, phospho-Erk1/2, phospho-JNK1/2, phospho-p38, phospho-Akt, phospho-ATF2, phospho-Elk1, PARP (Cell Signaling Technology Inc., Beverly, Mass.) and actin (Sigma, St. Louis, Mo.) and secondary antibodies (Santa Cruz Biotechnology, Santa Cruz, Calif.) were used for probing the abundance of the target protein in the samples.
The significance of the JAK-STAT pathway in HT-29 cells was evaluated by probing for phospho-STAT3. Cytokines activated the STAT pathway, as shown by a strong induction of phospho-STAT3.

p-JNK1/2 = experiment: Western blot of p-JNK1/2 in cytokine-treated HT-29 cells; assay type: cell-based, human
Procedure: as §3, §6

p-Smad3 = experiment: Activated Smad levels (p-Smad3) in HT-29 cells; assay type: cell-based, human; conditions: HT-29, data not shown
Excerpt: The significance of the transforming growth factor (TGF-β) pathway in down-regulating iNOS expression by pterostilbene was also investigated since TGF-β is a very potent inhibitor of iNOS and cytokines regulate Smad signaling of the TGF-β pathway. However, there was no effect of pterostilbene on activated Smad levels (p-Smad3) or in inducing TGF-β ligands (data not shown).

ATF2 = experiment: Western blot of cytokine-induced ATF2 phosphorylation in HT-29 cells; assay type: cell-based, human; conditions: cytokine-treated HT-29
Procedure: as §3
as §6, with “samples. […]” for “samples.”

Elk-1 = experiment: Western blot of cytokine-induced Elk-1 phosphorylation in HT-29 cells; assay type: cell-based, human; conditions: cytokine-treated HT-29
Procedure: as §3
as §6, with “samples. […]” for “samples.”

[1] = test system: carcinogen-induced preneoplastic lesions; conditions: MMOC model; cited from earlier work

COc1cc(/C=C/c2ccc(O)cc2)cc(OC)c1 [pterostilbene, (E)-4-(3,5-dimethoxystyryl)phenol]
iNOS staining of ACF with moderate dysplasia (iNOS): weak cytoplasmic staining
mucin MUC2 staining of colon mucosa (mucin MUC2): abundant secretion of mucin MUC2
induction of p21 (p21): no induction
iNOS mRNA induction by the cytokine mixture (iNOS mRNA): strongly inhibited
COX-2 mRNA induction by the cytokine mixture (COX-2 mRNA): strongly inhibited
IL-1β mRNA induction by the cytokine mixture (IL-1β mRNA): strongly inhibited
effects on IκBα induced by the cytokines (IκBα): did not block
p-JNK1/2 protein levels (p-JNK1/2): only a small effect
activated Smad levels (p-Smad3) (p-Smad3): no effect
cytokine-induced activation (phosphorylation) of ATF2 (ATF2): effective in inhibiting
cytokine-induced activation (phosphorylation) of Elk-1 (Elk-1): effective in inhibiting
preventing carcinogen-induced preneoplastic lesions [1]: as effective as resveratrol
